According to paper PMC10343299, “S-Ethyl-Isothiocitrullin-Based Dipeptides and 1,2,4-Oxadiazole Pseudo-Dipeptides: Solid Phase Synthesis and Evaluation as NO Synthase Inhibitors” (Molecules, 2023):
Read-outs that look alike come from different tables or passages of the source.

Key:
[1] = biological target: T1, mouse iNOS (Mus musculus, UniProt P29477); test: NOS inhibition, oxyhemoglobin (hemoglobin capture) test, recombinant iNOS; assay type: biochemical; settings: recombinant enzyme, 20 µM arginine, triplicate, NI = <50% inhibition at 100 μM; for inhibition at 100 µM: read-out: IC50 (μM) iNOS (Mouse)
T1 construct: Full-length recombinant rat nNOS, mouse iNOS, bovine eNOS; made in house; host or cells: Escherichia coli
T1 sequence (P29477 1-1144): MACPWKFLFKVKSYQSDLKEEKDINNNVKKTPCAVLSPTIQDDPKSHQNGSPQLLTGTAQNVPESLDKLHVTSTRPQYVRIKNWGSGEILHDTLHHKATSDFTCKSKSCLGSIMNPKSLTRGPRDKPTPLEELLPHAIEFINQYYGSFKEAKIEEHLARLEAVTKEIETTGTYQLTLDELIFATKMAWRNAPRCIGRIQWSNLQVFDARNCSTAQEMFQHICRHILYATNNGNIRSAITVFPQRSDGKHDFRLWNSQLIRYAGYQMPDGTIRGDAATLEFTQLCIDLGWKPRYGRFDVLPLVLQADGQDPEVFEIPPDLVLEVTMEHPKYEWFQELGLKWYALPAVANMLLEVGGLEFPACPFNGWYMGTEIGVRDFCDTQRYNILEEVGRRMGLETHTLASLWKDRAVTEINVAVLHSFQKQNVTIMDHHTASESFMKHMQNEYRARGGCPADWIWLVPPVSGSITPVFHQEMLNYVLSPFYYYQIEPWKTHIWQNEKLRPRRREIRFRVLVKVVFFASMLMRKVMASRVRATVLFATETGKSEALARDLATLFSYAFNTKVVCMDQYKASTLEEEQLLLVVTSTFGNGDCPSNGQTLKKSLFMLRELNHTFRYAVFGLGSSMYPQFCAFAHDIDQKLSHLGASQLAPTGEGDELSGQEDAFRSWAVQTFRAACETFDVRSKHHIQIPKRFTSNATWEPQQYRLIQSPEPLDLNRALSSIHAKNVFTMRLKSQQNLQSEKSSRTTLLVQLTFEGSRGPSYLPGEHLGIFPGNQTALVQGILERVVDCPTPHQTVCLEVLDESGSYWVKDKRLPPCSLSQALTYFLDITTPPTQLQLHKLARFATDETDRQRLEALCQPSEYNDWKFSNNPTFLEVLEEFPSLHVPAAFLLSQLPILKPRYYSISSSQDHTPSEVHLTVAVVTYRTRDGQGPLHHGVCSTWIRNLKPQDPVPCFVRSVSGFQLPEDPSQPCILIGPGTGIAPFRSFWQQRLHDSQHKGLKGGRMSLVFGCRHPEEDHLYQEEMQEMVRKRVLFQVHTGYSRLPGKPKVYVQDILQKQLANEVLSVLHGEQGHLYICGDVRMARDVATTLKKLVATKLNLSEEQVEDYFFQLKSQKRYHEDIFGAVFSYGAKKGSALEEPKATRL
Description: (§1) The inhibitory effects of all compounds against the three recombinant NOSs (rat nNOS, mouse iNOS, and bovine eNOS) were evaluated in 96-well plates using the oxyhemoglobin test. A first screening at 100 and 10 μM was performed, and the IC50 values were measured for compounds showing more than 50% inhibition at 100 μM (Table 1 and Table 2).
(§2) Full-length recombinant rat nNOS, mouse iNOS, bovine eNOS, and the heme domains of rat brain nNOS and mouse iNOS were expressed in Escherichia coli and purified as described previously.
(§3) NOS catalytic activity was measured using the hemoglobin capture assay. The test was performed at 30 °C in 96-well microplates using a final volume of 200 µL. The assay mixture contained 100 µM NADPH, 10 µM BH4, 6 µM HbO2, 100 µM DTT, 5 µM FAD, 5 µM FMN, 10 µM (nNOS and eNOS), or 20 µM (iNOS) arginine, all in a 100 mM Hepes buffer, pH 7.5, and, for constitutive n- and e-NOS, 10 µg/mL calmodulin, and 1 mM CaCl2. The studied compounds were introduced as 2 μL of ×100 concentrated solutions in DMSO, and the control experiments were performed with DMSO or the buffer only. The kinetics of NO production were measured at 401 nm using an Infinite F500 microplate reader (Tecan, Singapore).

[2] = biological target: T2, rat nNOS (Rattus norvegicus, UniProt P29476); test: NOS inhibition, oxyhemoglobin (hemoglobin capture) test, recombinant nNOS; assay type: biochemical; settings: for IC50: recombinant enzyme, 10 µM arginine, triplicate, NI = <50% inhibition at 100 μM
T2 construct: Full-length recombinant rat nNOS, mouse iNOS, bovine eNOS; made in house; host or cells: Escherichia coli
Description: as §1, §2, §3

[3] = tested on: INS-1 cells (nNOS); test: Glucose-induced insulin secretion; assay type: cell-based; settings: 5.6 mM glucose, no IL-1β, 1 h, compounds 500 µM to 5 mM, L-NAME 5 mM
Description: Indeed, pancreatic β-cells are known to constitutively express the nNOS isoform, which negatively modulates glucose-induced insulin secretion.
The insulin-secreting cell line INS-1 (a gift from Prof. C. Wolheim, Geneva, Switzerland) was cultured in RPMI-1640 supplemented with 10% FCS, 100 units/mL penicillin, 100 µg/mL streptomycin, 2 mM L-glutamine, 10 mM HEPES, 1 mM sodium pyruvate, and […] 2-mercaptoethanol, according to M. Asfari et al.’s method.
The functional effects of compounds were evaluated on INS-1 cells. Cells were preincubated for 1 h at 37 °C in a Krebs–Ringer bicarbonate buffer (108 mM NaCl, 1.19 mM KH2PO4, 4.74 mM KCl, 2.54 mM CaCl2, 1.19 mM MgSO4·7H2O, and 18 mM NaHCO3) containing 2 g/L BSA in the absence of glucose. After removal of the medium, the cells were stimulated for another hour at 37°C in the same buffer in the presence of 5.6 mM glucose and the presence of increasing concentrations of L-NAME or compounds (from 500 µM to 5 mM). At the end of the incubation period, the medium was collected, and the insulin was measured using an insulin high-range assay kit (CisBio, Codolet, France). Data are expressed as means ± SEM of the experiments (indicated in the result part).

[4] = tested on: RAW 264.7 cells; test: Cell viability, MTT assay; assay type: cell-based, murine
Description: Cell viability was evaluated in the murine macrophage RAW 264.7 cells using an MTT assay for compounds 18, 21, 26, and 30. This experiment was performed without or with LPS (1 µg/mL), which induces iNOS expression (Figure S1). […] Compound 30 only killed 20% of the cells at 500 μM (Figure S1A). In the presence of LPS (1 µg/mL), cell viability was reduced by 30% due to the inhibition by NO of key enzymes involved in cell metabolism (Figure S1B).
The macrophage cell line RAW 264.7 (a gift from Dr. A. Blangy, Montpellier, France) was cultured in Dulbecco’s Modified Eagle’s Medium (DMEM) supplemented with 10% FCS, 100 units/mL penicillin, 100 µg/mL streptomycin, and 2 mM L-glutamine.
Cellular NO production was measured using the Griess reagent (Sigma-Aldrich), which evaluates the nitrite content in culture media. Cellular toxicity was estimated by the MTT assay (Sigma-Aldrich) in RAW 264.7 cells after the induction (or not) of iNOS by LPS, according to the manufacturer’s recommendations.

[5] = biological target: T3, bovine eNOS (Bos taurus, UniProt P29473); test: NOS inhibition, oxyhemoglobin (hemoglobin capture) test, recombinant eNOS; assay type: biochemical; settings: recombinant enzyme, 10 µM arginine, triplicate, NI = <50% inhibition at 100 μM, read-out: IC50 (μM) eNOS (Bovine)
T3 construct: Full-length recombinant rat nNOS, mouse iNOS, bovine eNOS; made in house; host or cells: Escherichia coli
Description: The inhibitory effects of all compounds against the three recombinant NOSs (rat nNOS, mouse iNOS, and bovine eNOS) were evaluated in 96-well plates using the oxyhemoglobin test [53].
NOS catalytic activity was measured using the hemoglobin capture assay [53]. The test was performed at 30 °C in 96-well microplates using a final volume of 200 µL. The assay mixture contained 100 µM NADPH, 10 µM BH4, 6 µM HbO2, 100 µM DTT, 5 µM FAD, 5 µM FMN, 10 µM (nNOS and eNOS), or 20 µM (iNOS) arginine, all in a 100 mM Hepes buffer, pH 7.5, and, for constitutive n- and e-NOS, 10 µg/mL calmodulin, and 1 mM CaCl2. The studied compounds were introduced as 2 μL of ×100 concentrated solutions in DMSO, and the control experiments were performed with DMSO or the buffer only. The kinetics of NO production were measured at 401 nm using an Infinite F500 microplate reader (Tecan, Singapore).

[6] = biological target: T4, oxygenase domain of iNOS (iNOSoxy) (Mus musculus, UniProt P29477); test: UV-visible difference spectroscopy titration of iNOSoxy; assay type: binding; settings: UV/Vis difference spectroscopy, ± SD, three experiments; read-out: Apparent equilibrium constant Ks iNOSoxy
T4 construct: the oxygenase domain of nNOS (nNOSoxy) and iNOS (iNOSoxy); made in house; host or cells: Escherichia coli
T4 sequence (P29477 1-498 limits assumed): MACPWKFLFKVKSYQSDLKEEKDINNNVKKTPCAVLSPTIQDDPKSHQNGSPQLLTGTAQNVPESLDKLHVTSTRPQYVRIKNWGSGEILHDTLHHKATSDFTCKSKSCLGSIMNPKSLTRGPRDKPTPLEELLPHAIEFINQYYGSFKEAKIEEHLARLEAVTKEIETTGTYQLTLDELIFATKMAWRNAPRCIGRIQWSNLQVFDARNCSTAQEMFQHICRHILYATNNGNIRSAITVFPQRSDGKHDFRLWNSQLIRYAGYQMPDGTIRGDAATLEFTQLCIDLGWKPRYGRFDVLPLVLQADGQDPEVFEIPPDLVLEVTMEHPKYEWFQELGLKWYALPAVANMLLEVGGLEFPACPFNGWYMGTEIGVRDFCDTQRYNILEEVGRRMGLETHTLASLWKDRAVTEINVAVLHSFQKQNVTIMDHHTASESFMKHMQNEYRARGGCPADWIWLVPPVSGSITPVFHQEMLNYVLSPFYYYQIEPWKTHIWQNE
Excerpt: (§4) We performed UV–visible difference spectroscopy to analyze the interaction mode of some inhibitors with the heme-active site of NOS [54]. We have studied the effects of dipeptide-like compounds 7, 17, 19, 23, and 27 and 1,2,4-oxadiazole 35 on the UV–visible spectra of the oxygenase domain of nNOS (nNOSoxy) and iNOS (iNOSoxy). As expected, when added stepwise to n- and iNOSoxy, all selected compounds elicited different spectra with a trough at ~425 nm and a peak at ~395 nm, similar to the substrate L-arginine. This profile is characteristic of type I interactions, meaning that they are bound in close proximity to the heme prosthetic group and shifted the spin state equilibrium to the pentacoordinated heme–Fe^III state. Double reverse plotting of the differences in absorbance between the peak at ~395 nm and valley at ~425 nm (ΔA395–425 nm) as a function of the concentration of the added compounds allowed calculating apparent binding constants (Ks) (Table 3). The reference inhibitor SEITU [55] tightly bound both NOS isoforms with high affinity but no selectivity. With the exception of the dipeptide-like 27 and the heterocyclic analog 35, which similarly interacted with both proteins, other compounds preferentially bound nNOSoxy over iNOSoxy with apparent affinities close to SEITU for this isoform.
as §2
(§5) This study was performed as previously described.

[7] = biological target: T5, oxygenase domain of nNOS (nNOSoxy) (Rattus norvegicus, UniProt P29476); test: UV-visible difference spectroscopy titration of nNOSoxy; assay type: binding; settings: UV/Vis difference spectroscopy, ± SD, three experiments; read-out: Apparent equilibrium constant Ks nNOSoxy
T5 construct: the oxygenase domain of nNOS (nNOSoxy) and iNOS (iNOSoxy); made in house; host or cells: Escherichia coli
Excerpt: as §4, §2, §5

[8] = tested on: nNOS; set-up: method as in PMID 32027778; settings: Figure 1; previously described compounds; cited from earlier work
[9] = tested on: iNOS; set-up: method as in PMID 32027778; settings: Figure 1; previously described compounds; cited from earlier work
[10] = tested on: eNOS; set-up: method as in PMID 32027778; settings: Figure 1; previously described compounds; cited from earlier work

T2 sequence (P29476 whole entry): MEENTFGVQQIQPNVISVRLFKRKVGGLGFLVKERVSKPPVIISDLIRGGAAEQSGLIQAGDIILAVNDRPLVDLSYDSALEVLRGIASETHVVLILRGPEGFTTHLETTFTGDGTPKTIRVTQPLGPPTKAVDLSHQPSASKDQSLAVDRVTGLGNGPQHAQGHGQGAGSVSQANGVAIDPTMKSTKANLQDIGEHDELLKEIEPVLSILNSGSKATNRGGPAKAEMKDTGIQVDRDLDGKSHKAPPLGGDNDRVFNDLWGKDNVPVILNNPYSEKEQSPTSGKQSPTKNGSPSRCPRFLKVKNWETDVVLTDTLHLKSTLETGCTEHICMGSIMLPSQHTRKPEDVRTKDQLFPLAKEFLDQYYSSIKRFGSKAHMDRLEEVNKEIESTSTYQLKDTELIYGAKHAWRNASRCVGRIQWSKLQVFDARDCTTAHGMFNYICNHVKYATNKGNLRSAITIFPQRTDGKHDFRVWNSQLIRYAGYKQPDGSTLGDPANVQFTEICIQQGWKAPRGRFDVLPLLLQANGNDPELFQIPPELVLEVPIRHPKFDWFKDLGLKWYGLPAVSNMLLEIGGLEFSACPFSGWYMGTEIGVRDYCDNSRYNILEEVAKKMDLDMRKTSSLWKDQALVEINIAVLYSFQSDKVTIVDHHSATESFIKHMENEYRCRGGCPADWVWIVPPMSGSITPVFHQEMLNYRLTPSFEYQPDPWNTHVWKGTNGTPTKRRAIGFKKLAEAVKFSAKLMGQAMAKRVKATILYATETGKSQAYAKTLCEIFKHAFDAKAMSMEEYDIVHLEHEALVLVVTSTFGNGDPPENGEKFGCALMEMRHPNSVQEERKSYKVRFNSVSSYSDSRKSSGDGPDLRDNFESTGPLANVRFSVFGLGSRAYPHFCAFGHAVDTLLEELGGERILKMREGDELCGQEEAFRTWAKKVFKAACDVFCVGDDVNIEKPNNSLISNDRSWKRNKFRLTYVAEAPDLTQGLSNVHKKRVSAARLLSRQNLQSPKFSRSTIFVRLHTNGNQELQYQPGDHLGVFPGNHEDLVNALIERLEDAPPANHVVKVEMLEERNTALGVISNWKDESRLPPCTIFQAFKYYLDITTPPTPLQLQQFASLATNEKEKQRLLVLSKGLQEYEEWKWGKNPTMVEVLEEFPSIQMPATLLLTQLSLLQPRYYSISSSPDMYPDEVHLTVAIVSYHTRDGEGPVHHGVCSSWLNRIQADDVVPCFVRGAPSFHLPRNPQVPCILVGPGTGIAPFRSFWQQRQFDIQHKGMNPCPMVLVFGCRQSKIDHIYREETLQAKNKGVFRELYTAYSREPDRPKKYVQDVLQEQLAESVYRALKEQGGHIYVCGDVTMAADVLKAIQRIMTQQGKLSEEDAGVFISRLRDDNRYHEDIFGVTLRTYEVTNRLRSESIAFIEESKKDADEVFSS
T3 sequence (P29473 whole entry): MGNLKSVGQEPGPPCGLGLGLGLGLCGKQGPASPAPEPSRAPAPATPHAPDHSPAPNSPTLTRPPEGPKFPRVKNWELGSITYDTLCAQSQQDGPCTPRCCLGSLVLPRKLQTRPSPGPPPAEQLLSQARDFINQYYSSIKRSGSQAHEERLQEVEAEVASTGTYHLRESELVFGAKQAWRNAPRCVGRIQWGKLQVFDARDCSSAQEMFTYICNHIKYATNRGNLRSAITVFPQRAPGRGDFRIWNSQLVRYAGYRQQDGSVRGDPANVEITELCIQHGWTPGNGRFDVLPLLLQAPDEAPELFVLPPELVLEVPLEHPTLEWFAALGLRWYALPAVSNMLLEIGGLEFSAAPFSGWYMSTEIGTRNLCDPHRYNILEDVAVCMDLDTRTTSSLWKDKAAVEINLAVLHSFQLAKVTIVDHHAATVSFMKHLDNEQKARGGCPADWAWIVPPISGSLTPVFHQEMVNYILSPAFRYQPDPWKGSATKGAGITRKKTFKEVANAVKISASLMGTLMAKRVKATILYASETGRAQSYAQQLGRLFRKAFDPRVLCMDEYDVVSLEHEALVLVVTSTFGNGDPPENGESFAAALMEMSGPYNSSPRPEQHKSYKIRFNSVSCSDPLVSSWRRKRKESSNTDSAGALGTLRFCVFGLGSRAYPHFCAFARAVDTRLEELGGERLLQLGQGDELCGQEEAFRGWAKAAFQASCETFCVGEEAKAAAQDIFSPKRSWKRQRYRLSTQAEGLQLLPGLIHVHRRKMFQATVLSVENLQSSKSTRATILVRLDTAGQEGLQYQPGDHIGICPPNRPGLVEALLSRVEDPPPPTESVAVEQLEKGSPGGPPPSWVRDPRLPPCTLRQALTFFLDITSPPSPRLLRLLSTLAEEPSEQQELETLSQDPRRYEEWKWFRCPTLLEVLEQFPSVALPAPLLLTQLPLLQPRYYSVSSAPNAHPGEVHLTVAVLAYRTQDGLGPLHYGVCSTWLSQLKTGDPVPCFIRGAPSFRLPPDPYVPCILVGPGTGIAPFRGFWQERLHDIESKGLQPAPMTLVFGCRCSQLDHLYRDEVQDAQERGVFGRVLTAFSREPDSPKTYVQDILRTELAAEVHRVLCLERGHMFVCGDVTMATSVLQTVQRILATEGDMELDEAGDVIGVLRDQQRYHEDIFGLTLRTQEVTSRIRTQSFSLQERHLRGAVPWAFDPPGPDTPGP
T5 sequence (P29476 1-720 limits assumed): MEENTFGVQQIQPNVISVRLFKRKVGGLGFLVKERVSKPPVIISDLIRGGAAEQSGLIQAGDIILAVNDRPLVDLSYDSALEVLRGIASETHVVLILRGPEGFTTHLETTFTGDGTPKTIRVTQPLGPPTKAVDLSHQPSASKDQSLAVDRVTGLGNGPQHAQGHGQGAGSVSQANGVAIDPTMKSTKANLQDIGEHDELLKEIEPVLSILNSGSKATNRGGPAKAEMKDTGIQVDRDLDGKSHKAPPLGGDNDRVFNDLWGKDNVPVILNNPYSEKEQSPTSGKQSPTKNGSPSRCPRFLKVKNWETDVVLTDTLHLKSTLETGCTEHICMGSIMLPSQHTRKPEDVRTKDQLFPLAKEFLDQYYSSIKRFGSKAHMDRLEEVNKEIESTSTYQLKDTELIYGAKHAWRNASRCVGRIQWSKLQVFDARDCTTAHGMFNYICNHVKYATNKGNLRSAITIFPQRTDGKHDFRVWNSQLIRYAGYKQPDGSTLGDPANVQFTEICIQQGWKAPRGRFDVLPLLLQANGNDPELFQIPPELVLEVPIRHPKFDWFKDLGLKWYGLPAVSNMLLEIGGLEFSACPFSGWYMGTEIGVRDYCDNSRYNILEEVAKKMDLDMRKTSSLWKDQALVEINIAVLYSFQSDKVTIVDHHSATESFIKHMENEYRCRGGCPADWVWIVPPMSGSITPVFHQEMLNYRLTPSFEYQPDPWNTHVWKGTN

| SMILES | IC50 ([1]; dipeptide-like series) | IC50 ([2]; dipeptide-like series) | Effect on insulin secretion [3] | inhibition at 100 µM ([5]; dipeptide-like series) | Kd [6] | Kd [7] | other results |
| --- | --- | --- | --- | --- | --- | --- | --- |
| CCSC(=N)NCCC[C@H](N)C(=O)N[C@H]1CCCN(Cc2cc([N+](=O)[O-])ccc2O)C1 [Compound 14] | 27.8 µM | 5.4 µM | dose-dependently stimulate glucose insulin secretion with better efficiency than L-NAME | – | – | – | – |
| CCSC(=N)NCCC[C@H](N)C(=O)N[C@H]1CCCN(Cc2ccc(C(F)(F)F)c(Cl)c2)C1 [Compound 18] | – | 6 µM | dose-dependently stimulate glucose insulin secretion with better efficiency than L-NAME | < 50% | – | – | inhibition at 100 µM ([1]; dipeptide-like series): < 50%; Reversal of LPS-induced reduction of cell viability ([4]; RAW 264.7, LPS 1 µg/mL): none partially reversed the LPS effect; Effect on cell viability (MTT) ([4]; RAW 264.7, absence of LPS, up to 100 μM): fully toxic |
| CCSC(=N)NCCC[C@H](N)C(=O)N[C@H]1CCCN(Cc2ccccc2C(F)(F)F)C1 [Compound 19] | – | 7.7 µM | – | < 50% | 96 ± 36 µM | 5.2 ± 1.1 µM | inhibition at 100 µM ([1]; dipeptide-like series): < 50% |
| CCSC(=N)NCCC[C@H](N)C(=O)N[C@H]1CCCN(Cc2ccc3ccccc3c2)C1 [Compound 22] | 11.9 µM | 12.7 µM | dose-dependently stimulate glucose insulin secretion with better efficiency than L-NAME | < 50% | – | – | – |
| CCSC(=N)NCCC[C@H](N)C(=O)N[C@H]1CCCN(Cc2ccc(-c3ccccc3)cc2)C1 [Compound 23] | 46.9 µM | 5.4 µM | – | < 50% | 92.5 ± 8.8 µM | 11.4 ± 3.8 µM | – |
| CCSC(=N)NCCC[C@H](N)c1nc(CCN(Cc2ccc3ccccc3c2)Cc2ccc3ccccc3c2)no1 [Compound 35] | – | – | – | – | 42.4 ± 8.7 µM | 47.1 ± 13 µM | IC50 ([1]; 1,2,4-oxadiazole series): 11.7 µM; IC50 ([2]; 1,2,4-oxadiazole series): 0.4 µM; Selectivity for nNOS against eNOS ([2]; from IC50 values): > 250 fold; Selectivity for nNOS against iNOS ([2]; from IC50 values): approximately 30 fold; inhibition at 100 µM ([5]; 1,2,4-oxadiazole series): < 50% |
| CCSC(=N)NCCC[C@H](N)c1nc(C)no1 [JMV3457] | – | – | – | – | – | – | IC50 [8]: 9.4 µM; IC50 [9]: 19 µM; IC50 [10]: 45 µM |
| CCSC(=N)NCCC[C@H](N)C(=O)NCCCN [JMV4246] | – | – | – | – | – | – | IC50 [8]: 6.6 µM; IC50 [9]: 48 µM; IC50 [10]: 52 µM |
| COC(=O)[C@@H](N)CCCNC(N)=N[N+](=O)[O-] [L-NAME, reference compound] | – | – | potentiated insulin release | – | – | – | – |
